How the values were obtained:
[1] = molecular target: T1, Human recombinant MAO-B (hMAO-B) (Homo sapiens, UniProt P27338); assay: MAO-B enzyme assay (Amplex Red, resorufin fluorescence); assay type: biochemical; conditions: for Selectivity Index (SI): IC50 (MAO-A)/IC50 (MAO-B); for IC50: five doses 10-0.001 µM, triplicate; for % Inhibition of MAO-B at 10 µM / inhibition at 10 µM: single dose 10 µM
T1 construct: purchased Sigma Aldrich; host or cells: insect cells
T1 sequence (P27338 1-520): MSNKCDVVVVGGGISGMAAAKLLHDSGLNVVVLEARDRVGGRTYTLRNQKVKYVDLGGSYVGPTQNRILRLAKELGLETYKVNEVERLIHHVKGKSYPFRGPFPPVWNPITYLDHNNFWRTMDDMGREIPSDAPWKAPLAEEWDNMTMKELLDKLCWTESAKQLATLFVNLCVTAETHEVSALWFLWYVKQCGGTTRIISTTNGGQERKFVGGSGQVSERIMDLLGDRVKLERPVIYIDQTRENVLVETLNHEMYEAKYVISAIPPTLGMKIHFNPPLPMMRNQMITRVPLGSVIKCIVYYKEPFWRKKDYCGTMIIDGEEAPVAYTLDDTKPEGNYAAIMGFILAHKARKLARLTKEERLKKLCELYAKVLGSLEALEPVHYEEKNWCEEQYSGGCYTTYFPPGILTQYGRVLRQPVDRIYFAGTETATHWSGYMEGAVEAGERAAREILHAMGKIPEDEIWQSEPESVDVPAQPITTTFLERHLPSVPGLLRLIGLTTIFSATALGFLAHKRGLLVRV
Protocol: Biological evaluation of the synthesized melatonin derivatives over both MAO-A and MAO-B was performed as reported previously. A detailed description of the protocol is in the Supplementary Materials.
First, the synthesized melatonin analogues (3a–x) were biologically evaluated over an MAO-B recombinant enzyme. The experiment was performed using Amplex® Red reagent technology. This technology offers quantitative enzyme activity sensitive detection, a wider dynamic range, and fluorescence emission outside the range of compound autofluorescence (if any). The Amplex® Red reagent is a colorless substrate that reacts with H2O2 in a 1:1 stoichiometry to produce a highly fluorescent resorufin; therefore, the induced inhibitory effects of the melatonin analogues over MAO-B were examined via spectrophotometry where the fluorescence rate of resorufin dye formation was measured.
Accordingly, compounds 3n, 3r, and 3u–w were further tested to determine their IC50 values over MAO-B in triplicate from the dose–response inhibition curves using Sigma-Plot software 13.0.
6. Materials and methods of monoamine oxidase (MAO) enzyme assay
The inhibitory activity of MAO-A, B enzyme of the compounds was evaluated based on previously described method. The MAO activity was measured in relative fluorescence units (RFU) evoked by peroxidase-catalyzed oxidation of Amplex Red® to resorufin, in which H2O2 generated by MAO reaction was used as the […]. Human recombinant MAO-A (hMAO-A) and MAO-B (hMAO-B) enzyme expressed in insect cells were obtained from Sigma Aldrich. The 2 μL of test compound in DMSO (final concentration: 1 nM – 10 μM) was treated with 98 μL of hMAO enzyme solution in 50 mM sodium phosphate buffer (pH 7.4, final protein amounts: ~1.25 μg protein/well for MAO-A and ~2.5 μg protein/well for MAO -B) on 96-well black plate and incubated for 15 min at 37 °C. Then 100 μL of reaction working solution which is mixed solution of 400 μM Amplex Red® (Cayman, final concentration: 200 μM), 2 U/mL horseradish peroxidase ( Sigma-Aldrich, final concentration: 1 U/mL) and 2 mM substrate ( p-tyramine for MAO -A, benzylamine for MAO -B, Sigma-Aldrich, final concentration: 1 mM) in 50 mM sodium phosphate buffer (pH 7.4) were added and incubated for 20 min at 37 °C in the dark. The fluorescent intensity was quantified using a microplate reader (SpectraMax®i3, Molecular Device) with an excitation at 545 nm and an emission at 590 nm. The 50% inhibitory concentrations (IC50) of compounds were determined as the mean ± S.E.M. in triplicate from the dose-response inhibition curves using SigmaPlot® 13.0. […]

PC12 cells [2] = conditions: ZnPP 0.2 µM, 6-OHDA 50 µM 24 h
Protocol: (§1) Control cells were incubated in an equivalent volume of DMSO to a final concentration of 0.3%. Neuroprotective effects of the tested compounds on the toxicity induced by 6-OHDA or rotenone in PC12 cells were evaluated as described previously with slight modifications. In brief, cells were pre-treated with the tested compounds or rasagiline at the indicated concentrations for 4 h. Next, they were exposed to 6-OHDA (50 μM) or rotenone (1 μM) for 24 h. In another set of experiments, the influence of HO-1 inhibitor, ZnPP, on the neuroprotective effects of the tested compounds against 6-OHDA-induced oxidative damage was investigated as previously reported. Briefly, the cells were pre-treated with the tested compounds for 4 h and then incubated with 0.2 µM of ZnPP for 30 min. Subsequently, 6-OHDA was added at a final concentration of 50 µM and incubated for 24 h.
(§2) After the desired treatment, cell viability was determined by MTT assay as described previously. Briefly, MTT was added to the cells at the final concentration of 0.5 mg/mL, which was followed by incubation for 3 h at 37 °C. […] The absorbance of the dissolved solution was measured at 550 nm using a microplate reader (SpectraMax M2^e, Molecular Devices, Sunnyvale, CA, USA). The cell viability was presented as the percentage of the absorbance measured in the vehicle-treated control cells.

PC12 cells [3] = assay: Cytotoxicity in PC12 cells (MTT assay); assay type: cell-based, rat; conditions: 10 and 30 μM, 24 h
Protocol: as §1, §2
Cell viabilities were measured by MTT assay.

| Selectivity Index (SI) [1] | IC50 [1] | % Inhibition of MAO-B at 10 µM [1] | inhibition at 10 µM [1] | SMILES | effect of ZnPP on protective effects against 6-OHDA-induced toxicity (PC12 cells [2]) | cytotoxic effects on PC12 cells (PC12 cells [3]) |
| --- | --- | --- | --- | --- | --- | --- |
| >71 | 1410 nM | 76.79 ± 0.27% | > 70% | O=C(Nc1ccc2[nH]ccc2c1)c1cccc(Cl)c1 [3n, 3-Chloro-N-(1H-indol-5-yl)benzamide] | completely abolished | did not show any significant cytotoxic effects |
| >109 | 910 nM | 87.00 ± 0.03% | > 70% | O=C(Nc1ccc2[nH]ccc2c1)c1cccc(Br)c1 [3r, 3-Bromo-N-(1H-indol-5-yl)benzamide] | completely abolished | did not show any significant cytotoxic effects |
